Source: US20240002846A1, “COMPOSITIONS AND METHODS FOR THE DIAGNOSIS AND TREATMENT OF ITCH” (Duke University, priority 2020, published 2024)
Entries after “also recorded” stand apart in the source; their conditions may differ.

Assays:
[1] = tested on: human TRPV4 mutations (R746C, R746G, R746D, K754G, R757G, R774G, and W776G); test: Ca2+ imaging in HEK cells transfected with human TRPV4 mutations; type: cell-based; details: except a reduction with mutation W776G
Method: Cell culture and transfection. HEK293 cells (ATCC® CRL-1573) were cultured on poly-D-lysine coated coverslips in 24-well plate containing DMEM media with high-Glucose (Gibco, Gaithersburg, MD) supplemented with 10% fetal bovine serum (FBS, HyClone Laboratories, Logan, UT) and 100 U/mL of penicillin/streptomycin (Gibco, Gaithersburg, MD). Cell cultures were maintained with 5% of CO2 in a humidified incubator at 37° C. HEK cells were transfected with rat or human wild type or mutant TRPV4 channels with EGFP or YFP coupled to their C-termini (1.5 μg of plasmid for excised patch clamp and Ca^2+ imaging and 200 ng for single-channel experiments). The jetPEI™ Polyplus transfection reagent (Polyplus Transfection, New York, NY) for electrophysiology or Lipofectamine™ 2000 Reagent (Invitrogen, Waltham, MA) for Ca^2+ imaging were used for transfections per manufacturer's instructions as previously described (Chen et al. Pain 2014, 155, 2662-2672; Morales-Lazaro et al. Nat. Commun. 2016, 7, 13092). […]
(§1) In vitro and ex vivo Ca^2+ imaging. […] Ratios of emissions were acquired at 0.5 Hz. ΔR/R0 was determined as the fraction of the increase of a given ratio over baseline ratio divided by baseline ratio. […]

[2] = tested on: rat TRPV4 mutations (R746C, R746G, R746D, K754G, R757G, R774G, and W776G); test: Ca2+ imaging in HEK cells transfected with rat TRPV4 mutations; type: cell-based; details: except a reduction with mutation W776G
Method: (§2) Cell culture and transfection. HEK293 cells (ATCC® CRL-1573) were cultured on poly-D-lysine coated coverslips in 24-well plate containing DMEM media with high-Glucose (Gibco, Gaithersburg, MD) supplemented with 10% fetal bovine serum (FBS, HyClone Laboratories, Logan, UT) and 100 U/mL of penicillin/streptomycin (Gibco, Gaithersburg, MD). Cell cultures were maintained with 5% of CO2 in a humidified incubator at 37° C. HEK cells were transfected with rat or human wild type or mutant TRPV4 channels with EGFP or YFP coupled to their C-termini (1.5 μg of plasmid for excised patch clamp and Ca^2+ imaging and 200 ng for single-channel experiments). The jetPEI™ Polyplus transfection reagent (Polyplus Transfection, New York, NY) for electrophysiology or Lipofectamine™ 2000 Reagent (Invitrogen, Waltham, MA) for Ca^2+ imaging were used for transfections per manufacturer's instructions as previously described (Chen et al. Pain 2014, 155, 2662-2672; Morales-Lazaro et al. Nat. Commun. 2016, 7, 13092). To investigate whether miR-146a can directly activate TRPV1 channels or indirectly via TLRs, HEK293 cells were transfected with rTRPV1 or co-transfected rTRPV1 with rTLR7, rTLR2, or rTLR6 (Addgene, Watertown, MA) for Ca^2+ imaging assay. Control cells were transfected with GFP or YFP.
Site-directed mutagenesis of TRPV4 channels. TRPV4 sequences of multiple species were aligned using Clustal Omega program. Site-directed mutagenesis to generate point mutations in rat and human TRPV4 channels were carried out using Phusion DNA polymerase enzyme (Salazar et al. Nat. Struct. Mol. Biol. 2009, 16, 704-710; Rosenbaum et al. Neuron 2002, 33, 703-713; Hsieh et al. Methods Mol. Biol. 2013, 978, 173-186), with final sequencing to check for presence of the induced mutation. We introduced the following mutations into the rTRPV4 or hTRPV4 channel: R746C, R746G, R746D, K754G, R757G, R774G, and W776G.
as §1

hTRPV4 = target: T1, hTRPV4 (Homo sapiens, UniProt Q9HBA0); test: Single-channel recordings of hTRPV4 in HEK293 cells; type: biochemical; details: +60 mV; 100 nM GSK101 or 5 μM LPC 18:1
T1 construct: expressed in transfected cells; host or cells: HEK293 (ATCC CRL-1573)
T1 sequence (Q9HBA0 whole entry): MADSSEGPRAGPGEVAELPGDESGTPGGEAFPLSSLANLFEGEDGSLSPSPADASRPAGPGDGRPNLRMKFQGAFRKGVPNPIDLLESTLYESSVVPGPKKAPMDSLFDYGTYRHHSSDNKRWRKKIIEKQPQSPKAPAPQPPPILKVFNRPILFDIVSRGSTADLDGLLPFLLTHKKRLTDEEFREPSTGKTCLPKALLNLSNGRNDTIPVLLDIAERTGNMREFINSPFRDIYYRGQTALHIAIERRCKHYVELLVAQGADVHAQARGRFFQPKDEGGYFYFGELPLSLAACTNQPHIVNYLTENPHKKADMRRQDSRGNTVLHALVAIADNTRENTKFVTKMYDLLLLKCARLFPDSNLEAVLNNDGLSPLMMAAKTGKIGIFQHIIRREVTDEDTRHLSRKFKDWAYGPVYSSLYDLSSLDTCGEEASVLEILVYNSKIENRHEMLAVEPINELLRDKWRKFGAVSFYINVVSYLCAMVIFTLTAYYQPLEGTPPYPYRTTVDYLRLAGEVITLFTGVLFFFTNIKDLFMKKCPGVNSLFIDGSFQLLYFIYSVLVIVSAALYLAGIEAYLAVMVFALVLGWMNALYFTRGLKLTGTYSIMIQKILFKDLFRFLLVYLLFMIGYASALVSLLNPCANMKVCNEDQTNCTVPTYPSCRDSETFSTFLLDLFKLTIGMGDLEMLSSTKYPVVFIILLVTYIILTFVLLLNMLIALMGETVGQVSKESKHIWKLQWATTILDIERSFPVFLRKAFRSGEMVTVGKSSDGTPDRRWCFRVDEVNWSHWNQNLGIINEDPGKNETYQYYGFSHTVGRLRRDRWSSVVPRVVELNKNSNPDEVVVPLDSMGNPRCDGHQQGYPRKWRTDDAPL
Method: as §2
For single-channel recordings, Borosilicate glass […]) pipettes were used. Recordings were obtained at +60 mV by acquiring several traces of 1-3 s duration. The effect of GSK1016790A or LPC 18:1 on single TRPV4 channels was studied in inside-out. Currents were filtered at 2 kHz and sampled at 5 kHz. […] Single-channel openings and closures were identified with the half-threshold crossing technique (Morales-Lazaro et al. Nat. Commun. 2016, 7, 13092). The channel open probability was calculated as the sum of the total open time divided by the sweep duration. Dwell times and amplitude histograms in the closed or open states were collected in logarithmic time histograms according to the Sine-Sigworth transformation (Sigworth et al. Biophys. J. 1987, 52, 1047-1054). Sums of three or two exponential components were fitted to histograms using a least-squares algorithm.

[3] = cited from earlier work
mice = test: Effect of inhibitor pretreatment on LPA-, LPC- or miR-146a-induced scratching behavior; type: in vivo, mouse; details: i.t. 200 ng/5 μL, about 2 weeks before
Method: Behavioral assessment. Mice were shaved at the dorsal neck 1 d before experiments. […] After injections, mice were immediately placed back to the chamber, and the scratching behavior was recorded by a Panasonic video camera for 30 min. Hind limb scratching behavior directed toward the injected area at the nape of neck was observed. One scratch is defined as a lifting of the hind limb toward the injection site and then a replacing of the limb back to the floor, regardless of how many scratching strokes take place between those two movements. Behavioral analysis was conducted by observers blinded to genotype.
Control animals received the same volume of vehicles.
Lumbar puncture was made with a 30G-needle and drugs at 5 μL of volume were delivered. Scratching behavior assay was started approximately 2 weeks after resiniferatoxin treatment.

[4] = tested on: TRPV1+ central nerve terminals; test: Ablation of TRPV1+ central nerve terminals in spinal cord (TRPV1 immunolabeling); type: in vivo, mouse; details: i.t. 200 ng/5 μL
Method: To examine whether TRPV1-expressing sensory neurons contribute to LPC- or miR-146α-induced itch, we ablated the central terminals of TRPV1-expressing neurons by i.t. injection of 200 ng resiniferatoxin (RTX) into the L4/L5 subarachnoid space (Mishra et al. Mol. Cell. Neurosci. 2010, 43, 157-163). Lumbar puncture was made with a 30G-needle and drugs at 5 μL of volume were delivered. Scratching behavior assay was started approximately 2 weeks after resiniferatoxin treatment.
Immunohistochemistry and morphometry analysis. Routine procedures were followed (Chen et al. Pain 2014, 155, 2662-2672). Briefly, mice were perfused transcardially with 0.01 M PBS followed by ice-cold 4% paraformaldehyde (PFA, Sigma, St. Louis, MO). Cervical spinal cord, TGs and cervical DRGs, and dorsal neck skin were dissected and post-fixed in 4% PFA overnight, cryoprotected in 20% sucrose (48 h) and sectioned on a cryostat (30 μm for spinal cord, 12 μm for TG and DRG and neck skin). […] 4-6 sections were analyzed per mouse. […] The cutoff density threshold was determined by averaging the density of three neurons per section that were judged to be minimally positive, using ImageJ software. […] Positive cells were expressed as % of total counted TG neurons. The labeling density of TRPV1 in spinal cord was measured using the integrated density algorithm of Image J.

Structure (SMILES)	10 nM GSK101-induced Ca2+ signal in TRPV4 mutants vs hTRPV4 [1]	10 nM GSK101-induced Ca2+ signal in TRPV4 mutants vs rTRPV4 [2]	open level (single-channel) amplitude (hTRPV4)	open probability (Po) (hTRPV4)	single channel conductance (gi) (hTRPV4)	lethality in-vivo [3]	effect on LPC-induced itch after ablation of TRPV1-expressing terminals (mice)	effect on miR-146a-induced itch after ablation of TRPV1-expressing terminals (mice)	TRPV1+ central nerve terminals in superficial layers of the spinal cord [4]
CC(C)C[C@H](NC(=O)c1cc2ccccc2s1)C(=O)N1CCN(C(=O)[C@H](CO)NS(=O)(=O)c2ccc(Cl)cc2Cl)CC1 [GSK101]	not significantly disrupted	remained largely active; also recorded: not significantly disrupted	6.45±0.55 pA	0.85±0.08	107 pS	lethal			
C=C(C)[C@]12C[C@@H](C)[C@@]34O[C@](Cc5ccccc5)(O[C@@H]1[C@@H]3C=C(COC(=O)Cc1ccc(O)c(OC)c1)C[C@]1(O)C(=O)C(C)=C[C@@H]41)O2 [resiniferatoxin]							significantly reduced	significant reduction; also recorded: significantly reduced	Selective ablation; also recorded: Elimination
